Assay [1] concerns Green Peach Aphid (GPA) (Myzus persicae) (MYZUPE). Nature of the assay: Bioassay for Green Peach Aphid (GPA), foliar spray on cabbage seedlings. The assay is classed as in vivo. Conditions: 72 h, 200 ppm foliar spray on cabbage seedlings, graded after three days, Abbott corrected % control, read-out: GPA 200 ppm, % Control (or Mortality) rating. An excerpt: Bioassay for Green Peach Aphid (GPA) (Myzus persicae) (MYZUPE)
The green peach aphid (Myzus persicae) is the most significant aphid pest of peach trees, causing decreased growth, shriveling of the leaves, and the death of various tissues. It is also hazardous because it acts as a vector for the transport of plant viruses, such as potato virus Y and potato leafroll virus to members of the nightshade/potato family Solanaceae, and various mosaic viruses to many other food crops. GPA attacks such plants as broccoli, burdock, cabbage, carrot, cauliflower, daikon, eggplant, green beans, lettuce, macadamia, papaya, peppers, sweet potatoes, tomatoes, watercress, and zucchini, among other plants GPA also attacks many ornamental crops such as carnation, chrysanthemum, flowering white cabbage, poinsettia, and roses. GPA has developed resistance to many pesticides.
Cabbage seedlings grown in 3-inch pots, with 2-3 small (3-5 cm) true leaves, were used as test substrate. The seedlings were infested with 20-50 GPA (wingless adult and nymph stages) one day prior to chemical application. Four pots with individual seedlings were used for each treatment. Test compounds (2 mg) were dissolved in 2 mL of acetone/methanol (1:1) solvent, forming stock solutions of 1000 ppm test compound. The stock solutions were diluted 5× with 0.025% Tween 20 in water to obtain the solution at 200 ppm test compound. A hand-held aspirator-type sprayer was used for spraying a solution to both sides of […] leaves until runoff. Reference plants (solvent check) were sprayed with the diluent only containing 20% by volume of acetone/methanol (1:1) solvent. Treated plants were held in a holding room for three days at approximately 25° C. and ambient relative humidity (RH) prior to grading. Evaluation was conducted by counting the number of live aphids per plant under a microscope. Percent control was measured by using Abbott's correction formula (W. S. Abbott, “A Method of Computing the Effectiveness of an Insecticide” J. Econ. Entomol. 18 (1925), pp. 265-267) as follows. Corrected % Control=100*(X−Y)/X
X=No. of live aphids on solvent check plants and
Y=No. of live aphids on treated plants
Biological Data for Green Peach Aphid (GPA) (MYZUPE) and Sweetpotato Whitefly-Crawler (WF) (BEMITA)” (see table section).
(§1) The mortality efficiency of the pesticidal compounds against GPA and WF insects was determined after treatment.

The test system of assay [2] is Sweetpotato Whitefly-Crawler (WF) (Bemisia tabaci) (BEMITA). As to the kind of experiment: Insecticidal test for Sweetpotato Whitefly-Crawler (WF) in foliar spray assay on cotton plants. Conditions: 216 h, 200 ppm foliar spray on cotton plants, graded after 9 days, Abbott corrected % control, read-out: WF 200 ppm, % Control (or Mortality) rating. The assay is classed as in vivo.
From the text: Insecticidal Test for Sweetpotato Whitefly-Crawler (WF) (Bemisia tabaci) (BEMITA) in Foliar Spray Assay
The sweetpotato whitefly (Bemisia tabaci) has been reported as a serious pest of cultivated crops world-wide. It has an extremely wide host range attacking more than 500 species of plants from 63 plant families. Weeds often serve as alternate hosts of crop pests. Direct feeding damage is caused by the piercing and sucking sap from the foliage of plants. This feeding causes weakening and early wilting of the plant and reduces the plant growth rate and yield Indirect damage results by the accumulation of honeydew produced by the whiteflies. Honeydew serves as a substrate for the growth of black sooty mold on leaves and fruit reducing photosynthesis and lessens the market value of the plant or yield. […] The sweetpotato whitefly is considered the most common and important whitefly vector of plant viruses worldwide.
Cotton plants (Gossypium hirsutum) grown in 3-inch pots, with 1 small (4-5 cm) true leaves, were used as test substrate. The plants were infested with 200-400 whitefly eggs 4-5 days prior to chemical application. Four pots with individual plants were used for each treatment. Test compounds (2 mg) were dissolved in 1 mL of acetone solvent, forming stock solutions of 2000 ppm test compound. The stock solutions were diluted 10× with 0.025% Tween 20 in water (diluents) to obtain the solution at 200 ppm test compound. A hand-held aspirator-type sprayer was used for spraying a solution to both sides of cotton leaves until runoff. Reference plants (solvent check) were sprayed with the diluent only containing 10% by volume of acetone solvent. Treated plants were held in a holding room for 9 days at approximately 25° C. and ambient relative humidity (RH) prior to grading. Evaluation was conducted by counting the number of live 3-4 nymph stage per plant under a microscope. Percent control was measured by using Abbott's correction formula (W. S. Abbott, “A Method of Computing the Effectiveness of an Insecticide” J. Econ. Entomol. 18 (1925), pp. 265-267) as follows.
Biological Data for Green Peach Aphid (GPA) (MYZUPE) and Sweetpotato Whitefly-Crawler (WF) (BEMITA)” (see table section). Corrected % Control=100*(X−Y)/X
X=No. of live nymphs on solvent check plants and
Y=No. of live nymphs on treated plants
as §1

Structures are written as SMILES.

The results in this text go back to patent US9523100B2, “Pesticidal compositions and related methods” (DOW AGROSCIENCES LLC, priority 2013, dated 2016).

As for `CN(C)C(=O)CCC(=O)N(C)c1cn(-c2cccnc2)nc1Cl` [Compound F25, N1-(3-Chloro-1-(pyridin-3-yl)-1H-pyrazol-4-yl)-N1,N4,N4-trimethyl succinimide], the mortality (usually the percentage killed) at 200 ppm fell in the range of 0 to 80% in assay [1] and 80 to 100% in assay [2].

In the case of `CCN(C(=O)C1CN(C(=O)OC(C)(C)C)C1)c1cn(-c2cccnc2)nc1Cl` [Compound F26], the mortality at 200 ppm lay within 80 to 100% in assay [1] and 0 to 80% in assay [2].

On to `CN(C(=O)CCC(=O)N1CCCCCC1)c1cn(-c2cccnc2)nc1Cl` [Compound F27, 4-(Azepan-1-yl)-N-(3-chloro-1-(pyridin-3-yl)-1H-pyrazol-4-yl)-N-methyl-4-oxobutanamide], for which the mortality at 200 ppm in assay [1] is 0 to 80%; in assay [2] it was 80 to 100%.

Consider `CCN(C(=O)CCNC(=O)CC(C)C(F)(F)F)c1cn(-c2cccnc2)nc1Cl` (centres unmarked) [Compound F28, N-(3-((3-Chloro-1-(pyridin-3-yl)-1H-pyrazol-4-yl)(ethyl)amino)-3-oxopropyl)-4,4,4-trifluoro-3-methylbutanamide], for which the mortality at 200 ppm in assay [1] and in assay [2] was 80 to 100% each time.

Consider `CC(=O)N1CCC(C(=O)N(C)c2cn(-c3cccnc3)nc2Cl)CC1` [Compound F29, 1-Acetyl-N-(3-chloro-1-(pyridin-3-yl)-1H-pyrazol-4-yl)-N-methylpiperidine-4-carboxamide], for which the mortality at 200 ppm in assay [1] and in assay [2] was 80 to 100% in each case.

On to `CCN(C(=O)CCC(=O)N(C)CC1CC1)c1cn(-c2cccnc2)nc1Cl` [Compound F30, N1-(3-Chloro-1-(pyridin-3-yl)-1H-pyrazol-4-yl)-N4-(cyclopropylmethyl)-N1-ethyl-N4-methylsuccinamide], for which the mortality at 200 ppm in assay [1] and in assay [2] was 80 to 100% each time.

Turning to `CN(C(=O)CCN1CCOC1=O)c1cn(-c2cccnc2)nc1Cl` [Compound F31, N-(3-chloro-1-(pyridin-3-yl)-1H-pyrazol-4-yl)-N-methyl-3-(2-oxooxazolidin-3-yl)propanamide], the mortality at 200 ppm in assay [1] and in assay [2] was 80 to 100% each time.

As for `CCN(C(=O)CC1CN(C)C1=O)c1cn(-c2cccnc2)nc1Cl` (centres unmarked) [Compound F32, N-(3-chloro-1-(pyridin-3-yl)-1H-pyrazol-4-yl)-N-ethyl-2-(1-methyl-2-oxoazetidin-3-yl)acetamide], the mortality at 200 ppm in assay [1] and in assay [2] was 80 to 100% in each case.

Regarding `CN(C(=O)CCC(=O)N1CCCCC1)c1cn(-c2cccnc2)nc1Cl` [Compound F33, N-(3-Chloro-1-(pyridin-3-yl)-1H-pyrazol-4-yl)-N-methyl-4-oxo-4-(piperidin-1-yl)butanamide], the mortality at 200 ppm in assay [1] fell in the range of 0 to 80%; in assay [2], 80 to 100%.

For `CCN(C(=O)CCN(CC(F)F)C(=O)C1CC1(F)F)c1cn(-c2cccnc2)nc1Cl` (centres unmarked) [Compound F34, N-(3-((3-chloro-1-(pyridin-3-yl)-1H-pyrazol-4-yl)(ethyl)amino)-3-oxopropyl)-N-(2,2-difluoroethyl)-2,2-difluorocyclopropanecarboxamide], the mortality at 200 ppm in assay [1] lay within 0 to 80%; in assay [2], 80 to 100%.

Turning to `CCN(C(=O)CCN(CC(F)F)C(=O)C1(C)CC1(F)F)c1cn(-c2cccnc2)nc1Cl` (centres unmarked) [Compound F35, N-(3-((3-Chloro-1-(pyridin-3-yl)-1H-pyrazol-4-yl)(ethyl)amino)-3-oxopropyl)-N-(2,2-difluoroethyl)-2,2-difluoro-1-methylcyclopropane carboxamide], the mortality at 200 ppm in assay [1] and in assay [2] was 80 to 100% throughout.

As for `CCN(C(=O)CC/C(C)=N/Oc1cc(C(F)(F)F)ccn1)c1cn(-c2cccnc2)nc1Cl` [Compound F36, (E/Z)-N-(3-Chloro-1-(pyridin-3-yl)-1H-pyrazol-4-yl)-N-ethyl-4-(((4-(trifluoromethyl)pyridin-2-yl)oxy)imino)pentanamide], the mortality at 200 ppm in assay [1] and in assay [2] was 80 to 100% throughout.

As to `CN(C(=O)CCC(=O)N1CCCC1)c1cn(-c2cccnc2)nc1Cl` [Compound F37, N-(3-Chloro-1-(pyridin-3-yl)-1H-pyrazol-4-yl)-N-methyl-4-oxo-4-(pyrrolidin-1-yl)butanamide], the figures for the mortality at 200 ppm in assay [1] and in assay [2] were 0 to 80% and 80 to 100%, respectively.

With `CN(C(=O)CCN1CCSC1=O)c1cn(-c2cccnc2)nc1Cl` [Compound F38, N-(3-Chloro-1-(pyridin-3-yl)-1H-pyrazol-4-yl)-N-methyl-3-(2-oxothiazolidin-3-yl)propanamide], the mortality at 200 ppm in assay [1] and in assay [2] was 80 to 100% in each case.

In the case of `CCN(C(=O)CCN1CCCC1=O)c1cn(-c2cccnc2)nc1Cl` [Compound F39, N-(3-Chloro-1-(pyridin-3-yl)-1H-pyrazol-4-yl)-N-ethyl-3-(2-oxopyrrolidin-1-yl)propanamide], the mortality at 200 ppm in assay [1] and in assay [2] was 80 to 100% in each case.

Consider `CCSC(=O)N(C)CCC(=O)N(CC)c1cn(-c2cccnc2)nc1Cl` [Compound F40, S-Ethyl (3-((3-chloro-1-(pyridin-3yl)-1H-pyrazol-4-yl)(ethyl)amino)-3-oxopropyl)(methyl) carbamothioate], for which the mortality at 200 ppm in assay [1] and in assay [2] was 0 to 80% in each case.

As for `CCOC(=O)N(C)CCC(=O)N(CC)c1cn(-c2cccnc2)nc1Cl` [Compound F42, Ethyl (3-((3-chloro-1-(pyridin-3-yl)-1H-pyrazol-4-yl)(ethyl)amino)-3-oxopropyl)(methyl)carbamate], the mortality at 200 ppm in assay [1] and in assay [2] was 80 to 100% throughout.

On to `CCN(C(=O)CCC(=O)NCCF)c1cn(-c2cccnc2)nc1Cl` [Compound F43, N1-(3-Chloro-1-(pyridin-3-yl)-1H-pyrazol-4-yl)-N1-ethyl-N4-(2-fluoroethyl)succinamide], for which the values for the mortality at 200 ppm in assay [1] and in assay [2] were 0 to 80% and 80 to 100%, respectively.

Turning to `CCN(C(=O)CCNC(=O)C(C)CC(F)(F)F)c1cn(-c2cccnc2)nc1Cl` (centres unmarked) [Compound F44, N-(3-((3-Chloro-1-(pyridin-3-yl)-1H-pyrazol-4-yl)(ethyl)amino)-3-oxopropyl)-4,4,4-trifluoro-2-methylbutanamide], the mortality at 200 ppm in assay [1] and in assay [2] was 80 to 100% in each case.

As for `CCN(C(=O)CCNC(=O)Cc1ccc(F)cc1)c1cn(-c2cccnc2)nc1Cl` [Compound F46, N-(3-Chloro-1-(pyridin-3-yl)-1H-pyrazol-4-yl)-N-ethyl-3-(2-(4-fluorophenyl)acetamido) propanamide], the mortality at 200 ppm in assay [1] was in the range of 0 to 80%; in assay [2] it was 80 to 100%.

Turning to `CCN(C(=O)CN1CCOC1=O)c1cn(-c2cccnc2)nc1Cl` [Compound F48, N-(3-Chloro-1-(pyridin-3-yl)-1H-pyrazol-4-yl)-N-ethyl-2-(2-oxooxazolidin-3-yl)acetamide], the mortality at 200 ppm in assay [1] and in assay [2] was 80 to 100% throughout.

`CN(C(=O)CCN1CCCCC1=O)c1cn(-c2cccnc2)nc1Cl` [Compound F49, N-(3-Chloro-1-(pyridin-3-yl)-1H-pyrazol-4-yl)-N-methyl-3-(2-oxopiperidin-1-yl)propanamide]: the mortality at 200 ppm in assay [1] and in assay [2] was 80 to 100% each time.
